Consider nine molecules from patent US11834672B2, “Method for producing hypophysis precursor tissue” (RIKEN, priority 2011, dated 2023).

For assay [1], the system named is ES cell-derived pituitary precursor tissue. In words: Differentiation of ES cell-derived pituitary precursor tissue into ACTH-producing cells, fluorescence antibody staining. It counts as cell-based, mouse. Particulars: for expression of Pitx1: DAPT, BIO or IWP2 treatment, day 26 (FIG. 3k). The protocol: Furthermore, using gfCDM medium, the aggregates were cultured under 40% O2 and 5% CO2 for 12 days in total (total 22 days). Moreover, the aggregates were treated with Notch signal inhibitor, 10 μM DAPT, for one day during days 18-19 or days 20-21 of culture.

The test system is the same in assay [2]. In words: Differentiation of ES cell-derived pituitary precursor tissue into GH-, PRL-, LH-, FSH-, TSH-positive cells. The class given is cell-based, mouse. As for the experimental part: Mouse ES cells were differentiated into pituitary precursor tissues by an SAG treatment (400 nM for 7 days and 100 nM for 3 days, total 10 days) using the method of Example 2. Furthermore, the aggregates were continuously floating-cultured under 40% O2 and 5% CO2. The medium used was gfCDM comprising corticosteroid (200 ng/ml hydrocortisone) and 1 nM insulin, gfCDM comprising estrogen (50 ng/ml estradiol) and 1 nM insulin, or culture supernatant (conditioned medium) of mouse feeder cell, PA6 cell, in gfCDM.
The expression of growth hormone (GH), prolactin (PRL), luteinizing hormone (LH), follicle-stimulating hormone (FSH), and thyroid-stimulating hormone (TSH) was confirmed by cytochemical staining of frozen section by the fluorescence antibody method.

For assay [3], the system named is hedgehog signaling. The conditions noted are these: cited from earlier work.
For assay [4], the system named is mouse ES cell aggregates (10000 cells per aggregate). The assay is described as follows: Induction of pituitary precursor tissue (Lim3) in mouse ES cell aggregates by hedgehog signal treatment. The class given is cell-based. The protocol:
Aggregates of mouse ES cells were formed from 10000 cells per aggregate by using the SFEBq/gfCDM method (Wataya et al, 2008, PNAS vol. 105, pp. 11796-11801), and subjected to the floating-culture as in Example 1. Immediately after the start of the differentiation culture, SAG (Danjo et al, JNS, 2011, vol. 31, pp. 1919-1933), a hedgehog agonist, was added at 100 or 400 nM, and the aggregates were cultured for a total of 10-13 days. […] The expression of Lim3, a marker of pituitary precursor tissue (Rathke's pouch), and the like was confirmed by PCR or cytochemical staining of frozen section by the fluorescence antibody method. The expression of Lim3 was also confirmed using Lim3::GFP knocked-in ES cells.

The test system of assay [5] is ES cell-derived ACTH-producing cells. In words: In vitro ACTH secretion from ES cell-derived ACTH-producing cells by CRH, ELISA of culture supernatant. It counts as cell-based, mouse.
Assay [6] shares this test system. Described as above. The class given is cell-based, mouse. The conditions noted are these: 10 min, SAG- and DAPT-treated aggregates. The protocol: Mouse ES cells were differentiated into ACTH-producing cells by a SAG treatment and a DAPT treatment (total 22 days) using the method of Example 3. The aggregates were treated with CRH (corticotropin releasing factor) and ACTH secretion was quantified. To be specific, eight aggregates were placed in 500 μl of HBSS solution and, after pre-incubation at 37° C. for 10 min, CRH was added at a final concentration of 10-10000 ng/ml, and the aggregates were incubated for 10 min. Then, the culture supernatant was recovered and measured by ELISA method (FIG. 4a).

Assay [7] has as its system mouse ES cell aggregates. The assay is described as follows: SFEBq/gfCDM floating culture of mouse ES cell aggregates, non-neural head ectoderm marker Pitx2 by qPCR. It counts as cell-based. The conditions noted are these: BMP4 0.5 nM added to the medium, SFEBq/CDM-cultured ESCs.
Assay [8] has as its system human ES cells. In words: Floating aggregate culture of human ES cells with BMP4 and SAG, Pitx1 by qPCR and marker staining. Particulars: for E-cad positive non-neural ectoderm morphology: BMP-treated group, day 25 of culture. The class given is cell-based. The protocol:
Human ES cells (12000 cells) dispersed into single-cells with trypsin were subjected to floating aggregate culture in the presence of a […] ROCK inhibitor Y-27632 (Watanabe et al, Nature Neuroscience, 2007) in the same manner as in Example 1. The culture medium used was gfCDM added with 5% KSR. From day 3 of culture, 0.5 nM, 1.5 nM or 5.0 nM BMP4 was added to the culture medium, 1000 nM SAG was added from day 6 of culture, and the floating-culture was continued.

Where [9] appears, read: SAG 100 or 400 nM, PCR on day 10 and later.

Entries after “also recorded” stand apart in the source; their conditions may differ. Ends that are not written are not given here.

On to `O=C1Nc2cc(Br)ccc2/C1=C1/Nc2ccccc2/C1=N\O` [BIO, 6-bromoindirubin-3′-oxime], for which, in assay [1], the “expression of Pitx1” value is on record as “greatly increased”. Further, the “further increase of GH-positive cells” value in assay [2] (BIO 250 nM during days 16-18 of culture, then hydrocortisone and insulin) was 30-50%.
With `C[C@H](NC(=O)Cc1cc(F)cc(F)c1)C(=O)N[C@H](C(=O)OC(C)(C)C)c1ccccc1` [DAPT], the “expression of Tbx19 compared to without DAPT treatment” value in assay [1] (10 μM DAPT for one day, days 18-19 or 20-21, SAG-treated aggregates) is “enhanced Tbx19 expression”. In assay [1] (10 μM DAPT for one day, day 22), the “percentage of ACTH-positive cells” value was “increased percentage”. The “size of assemblies of Tbx19- and ACTH-highly positive cells” value in assay [1] (10 μM DAPT treatment, assemblies in plural sites) is given as more than 30 cells. In assay [1], the “expression of Pitx1” value is on record as “did not increase, or rather decreased”.
Turning to `Cc1ccc2nc(NC(=O)CSc3nc4c(c(=O)n3-c3ccccc3)SCC4)sc2c1` [IWP2], in assay [1], the “expression of Pitx1” value is given as “tended to decrease”.
In the case of `CNC1CCC(N(Cc2cccc(-c3ccncc3)c2)C(=O)c2sc3ccccc3c2Cl)CC1` (stereo not drawn) [SAG], the “activity compared with Shh” value in assay [3] is on record as “several-fold stronger activity than Shh”. Moreover, in assay [4] (setting [9]), the “gene expression of Lim3 relative to SAG non-addition group” value was found to be 7 fold and the “gene expression of Lim3 relative to undifferentiated ES cells” value is 15 fold. Besides, the “number of Lim3-positive epithelial pouch vesicles formed in the aggregate” value in assay [4] (SAG-addition group, further 3 days in gfCDM, total 13 days) is recorded as 1-7.
Turning to `Cc1nn(-c2ccccc2)c(C)c1/C=N/N1CCN(Cc2ccccc2)CC1` [SANT-1], the “effect on SAG induction of Lim3” value in assay [4] (hedgehog receptor antagonist added to SAG-treated aggregates) was “inhibited”.
Regarding `C[C@]12CCC(=O)C=C1CC[C@@H]1[C@@H]2[C@@H](O)C[C@@]2(C)[C@H]1CC[C@]2(O)C(=O)CO` [hydrocortisone], the “GH-positive cells in the aggregate” value in assay [2] (gfCDM with 200 ng/ml hydrocortisone and 1 nM insulin for 10 days from day 20) is on record as “many GH-positive cells”. Also, in assay [5] (hydrocortisone 100 ng/ml pre-treatment for 60 min), the “effect of pre-treatment on the ACTH secretion promoting effect of CRH” value is given as “suppressed almost completely; also recorded: suppressed the enhancement of ACTH secretion by CRH”.
In the case of “CRH: corticotropin releasing factor, hypothalamic hormone promoting ACTH secretion (SEEPPISLDLTFHLLREVLEMARAEQLAQQAHSNRKLMEII; ends and bridges not checked; UniProt P06850 154-194, looked up)”, the “ACTH concentration of the culture supernatant” value in assay [6] (10 ng/ml CRH) is 1.4 pg/mL; in assay [6] (100 ng/ml CRH) it was 4 pg/mL; in assay [6] (1000 ng/ml CRH) it was 8.5 to 9.5 pg/mL; in assay [6] (10000 ng/ml CRH), 8.5 to 9.5 pg/mL. For the same molecule, the ACTH secretion result in assay [5] (1000 ng/ml CRH, aggregates without SAG treatment) was “did not show a significant increase”; in assay [5] (CRH added, aggregates with SAG treatment but without DAPT treatment), “did not show much increase”. Moreover, the “induction of ACTH secretion by releasing hormones” value in assay [5] (SAG- and DAPT-treated aggregates (FIG. 4b)) is recorded as “CRH-specific; also recorded: enhancement of ACTH secretion”.

B1: FGF8: FGF signal promoter (protein, UniProt P55075 23-233, looked up)
Fibroblast growth factor 8: QEGPGRGPALGRELASLFRAGREPQGVSQQHVREQSLVTDQLSRRLIRTYQLYSRTSGKHVQVLANKRINAMAEDGDPFAKLIVETDTFGSRVRVRGAETGLYICMNKKGKLIAKSNGKGKDCVFTEIVLENNYTALQNAKYEGWYMAFTRKGRPRKGSKTRQHQREVHFMKRLPRGHHTTEQSLRFEFLNYPPFTRSLRGSQRTWAPEPR
Regarding B1, in assay [4] (FGF8 200 ng/ml during day 10-13, gfCDM without SAG), the “increase of tissues expressing Lim3” value is recorded as 30-50%.

B2: BMP4: Bone Morphogenetic protein of the BMP2/4 group; exogenous BMP signal promoter (protein, UniProt P12644 293-408, looked up)
Bone morphogenetic protein 4: SPKHHSQRARKKNKNCRRHSLYVDFSDVGWNDWIVAPPGYQAFYCHGDCPFPLADHLNSTNHAIVQTLVNSVNSSIPKACCVPTELSAISMLYLDEYDKVVLKNYQEMVVEGCGCR
As for B2, the “expression of Pitx2” value in assay [7] is listed as “increases; also recorded: elevation of Pitx2 expression”. In assay [8] (5 nM BMP4 from day 3, 12000 cells/aggregate, qPCR day 17), the “expression of Pitx1 compared to the group without the treatment” value was “about 10 fold”. Further, the “result when started from 3000 and 6000 human ES cells” value in assay [8] (BMP4 added to the medium) is listed as “equivalent results were obtained”. Besides, the “E-cad positive non-neural ectoderm morphology” value in assay [8] is given as “formation of E-cadherin^+ thickened non-neural ectoderm”; in assay [8] (listed as BMP), “a part thereof was thickened to show a placode-like structure”.
